Test results: patent US20240226026A1, “BRANCHED TAIL LIPID COMPOUNDS AND COMPOSITIONS FOR INTRACELLULAR DELIVERY OF THERAPEUTIC AGENTS” (ModernaTX, Inc., priority 2021, published 2024)

How the values were obtained:
[1] = Particle size (diameter) and polydispersity index of lipid nanoparticles; assay type: physicochemical; conditions: nanoparticles comprising the lipid
Description: A Zetasizer Nano ZS (Malvern Instruments Ltd, Malvern, Worcestershire, UK) can be used to determine the particle size, the polydispersity index (PDI) and the zeta potential of the nanoparticle compositions in 1×PBS in determining particle size and 15 mM PBS in determining zeta potential.
Lipid nanoparticles (e.g., empty LNPs or loaded LNPs) may be characterized by a variety of methods. For example, microscopy (e.g., transmission electron microscopy or scanning electron microscopy) may be used to examine the morphology and size distribution of a nanoparticle composition. Dynamic light scattering or potentiometry (e.g., potentiometric titrations) may be used to measure zeta potentials. Dynamic light scattering may also be utilized to determine particle sizes. Instruments such as the Zetasizer Nano ZS (Malvern Instruments Ltd, Malvern, Worcestershire, UK) may also be used to measure multiple characteristics of a nanoparticle composition, such as particle size, polydispersity index, and zeta potential.
(§1) Lipid nanoparticles (e.g., empty LNPs or loaded LNPs) including DSPC as a phospholipid, cholesterol as a structural lipid, PL-II (e.g., PEG-1) as a PEG lipid, and a lipid according to Formula (I-1), (I), (I-A), (I-A1), (I-A2), (I-A3), or (I-A4) were prepared. In some embodiments, the lipid nanoparticles further included rhodamine-DOPE as a fluorescent lipid. Tables 2a, 2b, and 3 summarize the characteristics of the formulations.

[2] = Encapsulation efficiency (% EE) of lipid nanoparticles; assay type: physicochemical; conditions: nanoparticles comprising the lipid
Description: For nanoparticle compositions including an RNA, a QUANT-IT™ RIBOGREEN® RNA assay (Invitrogen Corporation Carlsbad, CA) can be used to evaluate the encapsulation of an RNA by the nanoparticle composition. The samples are diluted to a concentration of approximately 5 μg/mL in a TE buffer solution (10 mM Tris-HCl, 1 mM EDTA, pH 7.5). 50 μL of the diluted samples are transferred to a polystyrene 96 well plate and either 50 μL of TE buffer or 50 μL of a 2% Triton X-100 solution is added to the wells. The plate is incubated at a temperature of 37° C. for 15 minutes. The RIBOGREEN® reagent is diluted 1:100 in TE buffer, and 100 μL of this solution is added to each well. The fluorescence intensity can be measured using a fluorescence plate reader (Wallac Victor 1420 Multilablel Counter; Perkin Elmer, Waltham, MA) at an excitation wavelength of, for example, about 480 nm and an emission wavelength of, for example, about 520 nm. The fluorescence values of the reagent blank are subtracted from that of each of the samples and the percentage of free RNA is determined by dividing the fluorescence intensity of the intact sample (without addition of Triton X-100) by the fluorescence value of the disrupted sample (caused by the addition of Triton X-100).
The efficiency of encapsulation of a therapeutic and/or prophylactic describes the amount of therapeutic and/or prophylactic that is encapsulated or otherwise associated with a lipid nanoparticle (e.g., an empty LNP or a loaded LNP) after preparation, relative to the initial amount provided. The encapsulation efficiency is desired to be high (e.g., close to 100%). The encapsulation efficiency may be measured, for example, by comparing the amount of therapeutic and/or prophylactic in a solution containing a loaded LNP before and after breaking up the loaded LNP with one or more organic solvents or detergents. Fluorescence may be used to measure the amount of free therapeutic and/or prophylactic (e.g., RNA) in a solution. For the loaded LNPs formulated with lipids of the disclosure, the encapsulation efficiency of a therapeutic and/or prophylactic is at least 50%, for example 50%, 55%, 60%, 65%, 70%, 75%, 80%, 85%, 90%, 91%, 92%, 93%, 94%, 95%, 96%, 97%, 98%, 99%, or 100%. In some embodiments, the encapsulation efficiency is at least 80%. In some embodiments, the encapsulation efficiency is at least 90%. In some embodiments, the encapsulation efficiency of the therapeutic and/or prophylactic agent is between 80% and 100%.
as §1

[3] = Lipid nanoparticle surface hydrophobicity by Generalized Polarization by Laurdan (N-GP); assay type: physicochemical; conditions: for Lipid nanoparticle surface hydrophobicity (N-GP*): Table 2a, Laurdan, higher N-GP indicates a less polar surface; for LNP surface hydrophobicity (N-GP*): Table 2b, nanoparticles comprising the lipid
Source text: Surface hydrophobicity of nanoparticles of the disclosure can be measured by Generalized Polarization by Laurdan (GPL). In this method, Laurdan, a fluorescent aminonaphthalene ketone lipid, is post-inserted into the nanoparticle surface and the fluorescence spectrum of Laurdan is collected to determine the normalized Generalized Polarization (N-GP). In some embodiments, nanoparticles formulated with lipids of the disclosure have a surface hydrophobicity expressed as N-GP of between about 0.5 and about 1.5. For example, in some embodiments, nanoparticles formulated with lipids of the disclosure have a surface hydrophobicity expressed as N-GP of about 0.5, about 0.6, about 0.7, about 0.8, about 0.9, about 1.0, about 1.1, about 1.2, about 1.3, about 1.4, or about 1.5. In some embodiments, nanoparticles formulated with lipids of the disclosure have a surface hydrophobicity expressed as N-GP of about 1.0 or about 1.1.

[4] = Apparent pKa of lipid nanoparticles; assay type: physicochemical; conditions: for Apparent pKa: Table 2a, nanoparticles comprising the lipid; for Apparent pKa 95% CI: Table 2b, 95% confidence interval
CD-1 mice = experiment: Expression of hEPO induced by LNPs (mRNA encoding hEPO) administered to mice; assay type: in vivo; conditions: Table 4a, serum, 6 h after intravenous injection; for Avg. hEPO Concentration (mIU/mL)* ± Avg. SD: ELLA Simple Plex Assay
Description: In some embodiments, hEPO concentrations were determined using an […] (ELLA) Simple Plex Assay (ProteinSimple) with a Human Erythroprotein cartridge. Standards for this assay are calibrated according to the 2. IRP WHO preparation. Nanoparticle compositions including mRNA are useful in the evaluation of the efficacy and usefulness of various formulations for the delivery of therapeutic and/or prophylactics. Higher levels of protein expression induced by administration of a composition including an mRNA will be indicative of higher mRNA translation and/or nanoparticle composition mRNA delivery efficiencies. As the non-RNA components are not thought to affect translational machineries themselves, a higher level of protein expression is likely indicative of a higher efficiency of delivery of the therapeutic and/or prophylactic by a given nanoparticle composition relative to other nanoparticle compositions or the absence thereof.
To assess potency of expression of lipids of the disclosure, the protein expression (hEPO) following administration of a nanoparticle comprising a lipid of the disclosure (e.g., a loaded LNP) to mice was measured.
Lipid nanoparticles (LNPs) including DSPC as a phospholipid, cholesterol as a structural lipid, PL-II (e.g., PEG-1) as a PEG lipid, a lipid according to Formula (I-1), (I), (I-A), (I-A1), (I-A2), (I-A3), or (I-A4), and an mRNA encoding hEPO were intravenously administered to CD-1 mice. The concentration of hEPO in serum was tested at 6 h after injection.

[5] = Table 2a, DSPC, cholesterol, PEG lipid

Compound	PDI ([1]; Table 2a)	Diameter (nm) [1, 5]	Diameter (nm) ([1]; Table 3)	PDI ([1]; Table 3)	% EE ([2]; Table 2a)	% EE ([2]; Table 3)	Lipid nanoparticle surface hydrophobicity (N-GP*) [3]	Apparent pKa [4]	Avg. hEPO Concentration (mIU/mL) ± Avg. SD (CD-1 mice)	Diameter (nm) ([1]; Table 2b)	PDI ([1]; Table 2b)	% EE ([2]; Table 2b)	LNP surface hydrophobicity (N-GP*) [3]	Apparent pKa 95% CI [4]	Avg. hEPO Concentration (mIU/mL)* ± Avg. SD (CD-1 mice)
CCCCCCCCC(CCCCCCCC)OC(=O)CCCCCCCN(CCCCCCCC(=O)OCCC(CCCC)CCCC)CCCNc1n[s+]([O-])nc1NC (centres unmarked) [Compound 1]	0.342	69.7 nm	63.3 nm	0.083	98.1%	97.9%	1.07	7.187	7.26E+06 ± 1.51E+05 mIU/mL						
CCCCCCCCC(CCCCCCCC)OC(=O)CCCCCCCN(CCCCCCCC(=O)OCCC(CCCC)CCCC)CCCNc1noc(N)n1 [Compound 2]			52.6 nm	0.163		97.6%				68.6 nm	0.214	99.2%	1.21	6.437 to 6.559	3.38E+05 ± 9.49E+03 mIU/mL
CCCCCCCCC(CCCCCCCC)OC(=O)CCCCCCCN(CCCCCCCC(=O)OCCC(CCCC)CCCC)CCCNS(=O)(=O)CCOC [Compound 3]	0.099	72.1 nm	80.9 nm	0.139	89.4%	95.6%	1.00	6.549	7.11E+06 ± 1.75E+05 mIU/mL						
CCCCCCCCC(CCCCCCCC)OC(=O)CCCCCCCN(CCCCCCCC(=O)OCCC(CCCC)CCCC)CCCNC(=O)C1(C)CC1 [Compound 4]			84.6 nm	0.194		54.1%				94.5 nm	0.198	45.9%	1.05	6.676 to 6.749	1.04E+07 ± 2.85E+05 mIU/mL
CCCCCCCCC(CCCCCCCC)OC(=O)CCCCCCCN(CCCCCCCC(=O)OCCC(CCCC)CCCC)CCCNS(=O)(=O)CC [Compound 5]	0.073	67.2 nm	83.1 nm	0.166	93.4%	96.0%	1.02	6.536	1.04E+07 ± 2.49E+05 mIU/mL						
CCCCCCCCC(CCCCCCCC)OC(=O)CCCCCCCN(CCCCCCCC(=O)OCCC(CCCC)CCCC)CCCNS(=O)(=O)Cc1ccon1 [Compound 6]	0.042	60.2 nm	65.9 nm	0.163	93.2%	96.7%	0.99	6.323	5.41E+06 ± 6.06E+04 mIU/mL						
CCCCCCCCC(CCCCCCCC)OC(=O)CCCCCCCN(CCCCCCCC(=O)OCCC(CCCC)CCCC)CCCNc1ncccc1N [Compound 7]			72.6 nm	0.133		99.0%				76.9 nm	0.129	98.0%	1.17	6.654 to 6.751	1.04E+06 ± 2.04E+04 mIU/mL
CCCCCC(CCCCC)CCOC(=O)CCCCCCCN(CCCCCCCC(=O)OCCC(CCCC)CCCC)CCCNc1n[s+]([O-])nc1NC (centres unmarked) [Compound 8]	0.144	86.9 nm	90.9 nm	0.217	89.6%	97.1%	0.99	6.934	4.95E+06 ± 1.24E+05 mIU/mL						
CCCCCC(CCCCC)CCOC(=O)CCCCCCCN(CCCCCCCC(=O)OCCC(CCCC)CCCC)CCCNc1noc(N)n1 [Compound 9]			69.7 nm	0.165		91.2%				96.9 nm	0.103	91.9%	0.98	6.583 to 6.671	1.84E+06 ± 2.44E+04 mIU/mL
CCCCCC(CCCCC)CCOC(=O)CCCCCCCN(CCCCCCCC(=O)OCCC(CCCC)CCCC)CCCNS(=O)(=O)CCOC [Compound 10]	0.208	133.3 nm	96.7 nm	0.154	55.1%	91.7%	1.03	6.738	6.15E+06 ± 1.35E+05 mIU/mL	122.3 nm	0.181	65.0%	0.89	6.644 to 6.741	
CCCCCC(CCCCC)CCOC(=O)CCCCCCCN(CCCCCCCC(=O)OCCC(CCCC)CCCC)CCCNC(=O)C1(C)CC1 [Compound 11]			117 nm	0.262		34.3%				200.1 nm	0.199	18.2%	1.01	6.906 to 6.961	4.15E+06 ± 8.08E+04 mIU/mL
